In article PMC12775434, “Ultra-large virtual screening unveils potent agonists of the neuromodulatory orphan receptor GPR139” (Nature Communications, 2025):
Where “and” joins values, the source holds several entries; their conditions need not be identical. Equal values may be shown once. Read-outs that look alike come from different tables or passages of the source.

How the values were obtained:
Type in all cases: cell-based
GPR139 [1] = biological target: T1, GPR139 (Homo sapiens, UniProt Q6DWJ6); test: Ca2+ mobilization assay, antagonist mode (EC80 800 nM Lundbeck Cmp 1a after 20 min preincubation), GPR139-CHOk1; details: individual replicates (Supplementary Figure 4)
T1 sequence (Q6DWJ6 1-353): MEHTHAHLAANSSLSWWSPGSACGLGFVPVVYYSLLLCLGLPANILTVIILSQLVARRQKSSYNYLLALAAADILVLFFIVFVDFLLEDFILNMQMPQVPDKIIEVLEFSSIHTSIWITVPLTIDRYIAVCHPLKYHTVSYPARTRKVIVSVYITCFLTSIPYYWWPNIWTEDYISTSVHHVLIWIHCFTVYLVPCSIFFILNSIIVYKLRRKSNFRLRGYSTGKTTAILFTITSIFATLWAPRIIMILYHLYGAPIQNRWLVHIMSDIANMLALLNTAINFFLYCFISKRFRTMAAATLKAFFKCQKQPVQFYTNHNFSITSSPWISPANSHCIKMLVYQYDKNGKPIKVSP
In short: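 Antagonist mode: 800 nM (EC80) reference agonist Lundbeck Cmp 1a added following 20 min pre-incubation with 10 µM compound. GPR139-CHOk1 cells, Fluo-4 dye, probenecid-containing HEPES buffer pH 7.4; intracellular Ca2+ measured at 37 °C (ex 485, em 525 nm).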

GPR139 [2] = biological target: T1, GPR139; test: Ca2+ mobilization assay, agonist mode, stable GPR139-CHOk1 cell line; details: for Emax: normalized to Lundbeck Cmp 1a, read-out: Emax (%) Ca2+
In short: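 Agonist activity of compounds is assessed in stably transfected CHO-K1 cells using the calcium dye Fluo-4 at 37 °C in HEPES-buffered HBSS (pH 7.4). Efficacy is expressed relative to the reference agonist Lundbeck Cmp 1a, set as 100%.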

[3] = biological target: T2, human muscarinic acetylcholine M1 receptor (M1R) (Homo sapiens, UniProt P11229); test: Ca2+ mobilization counter-screen in M1R-CHOk1 cells; details: individual replicates (Supplementary Figure 5)
T2 sequence (P11229 1-460): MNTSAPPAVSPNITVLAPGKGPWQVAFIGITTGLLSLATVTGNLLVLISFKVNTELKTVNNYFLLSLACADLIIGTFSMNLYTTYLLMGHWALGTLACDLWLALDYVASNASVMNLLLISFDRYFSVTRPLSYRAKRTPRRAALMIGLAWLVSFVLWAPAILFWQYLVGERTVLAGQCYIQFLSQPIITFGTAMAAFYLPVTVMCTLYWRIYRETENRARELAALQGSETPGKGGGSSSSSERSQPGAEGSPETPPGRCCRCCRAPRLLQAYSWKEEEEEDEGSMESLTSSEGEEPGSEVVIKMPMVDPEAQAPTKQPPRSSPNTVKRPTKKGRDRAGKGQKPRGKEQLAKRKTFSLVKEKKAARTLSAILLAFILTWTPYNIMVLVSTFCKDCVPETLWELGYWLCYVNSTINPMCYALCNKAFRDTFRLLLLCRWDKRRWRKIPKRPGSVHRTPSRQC
In short: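 Cells expressing M1R were grown 20–24 h, washed, then incubated 1 h at 37 °C with 2 µM Fluo-4 AM. After a wash and 10 min in probenecid buffer, test compounds were injected following a baseline read, and intracellular Ca2+ rise was monitored at 37 °C.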

[4] = Agonist mode, individual replicates (Supplementary Figure 4)
[5] = Supplementary Table 2, mean ± SEM, read-out: pEC50 Ca2+ (converted)
[6] = Supplementary Table 2, mean ± SEM
[7] = log [Compound] M = -4.5, individual replicate columns
[8] = log [Compound] M = -5.0, individual replicate columns
[9] = log [Compound] M = -5.5, individual replicate columns
[10] = log [Compound] M = -6.0, individual replicate columns
[11] = log [Compound] M = -6.5, individual replicate columns
[12] = log [Compound] M = -7.0, individual replicate columns
[13] = log [Compound] M = -7.5, individual replicate columns
[14] = log [Compound] M = -8.0, individual replicate columns
[15] = log [Compound] M = -8.5, individual replicate columns
[16] = log [Compound] M = -9.0, individual replicate columns

EC50 (GPR139 [2]; [5])	Emax (GPR139 [2]; [6])	fold decrease in potency relative to parent compound 1 (GPR139 [2]; Ca2+ mobilization EC50)	fold decrease in potency on substitution of the central oxadiazole ring (GPR139 [2]; Ca2+ mobilization)	EC50 (GPR139 [2]; GPR139-CHOk1, read-out: EC50, Ca2+ mobilization)	SMILES	Ca2+ signal (% of Cmp 1a) (GPR139 [1])	Ca2+ signal (% of Cmp 1a) (GPR139 [2]; [4])	Ca2+ signal (% of Cmp 1a) (GPR139 [2]; [7])	Ca2+ signal (% of Cmp 1a) (GPR139 [2]; [8])	Ca2+ signal (% of Cmp 1a) (GPR139 [2]; [9])	Ca2+ signal (% of Cmp 1a) (GPR139 [2]; [10])	Ca2+ signal (% of Cmp 1a) (GPR139 [2]; [11])	Ca2+ signal (% of Cmp 1a) (GPR139 [2]; [12])	Ca2+ signal (% of Cmp 1a) (GPR139 [2]; [13])	Ca2+ signal (% of Cmp 1a) (GPR139 [2]; [14])	Ca2+ signal (% of Cmp 1a) (GPR139 [2]; [15])	Ca2+ signal (% of Cmp 1a) (GPR139 [2]; [16])	Ca2+ signal (% of Carbachol) [3]
3.98 µM	88 ± 2%	–	–	–	Cc1nonc1Cc1nc(CC(=O)NC(C)c2ccccc2)no1 (centres unmarked) [Compound 1.33, CC(C1=CC=CC=C1)NC(CC2=NOC(CC3=NON=C3C)=N2)=O]	30 % of Cmp 1a and 49 % of Cmp 1a and 42 % of Cmp 1a	66 % of Cmp 1a and 46 % of Cmp 1a and 64 % of Cmp 1a	85 % of Cmp 1a (2×) and 90 % of Cmp 1a and 83 % of Cmp 1a	66 % of Cmp 1a and 64 % of Cmp 1a and 75 % of Cmp 1a and 85 % of Cmp 1a	43 % of Cmp 1a and 39 % of Cmp 1a and 20 % of Cmp 1a and 51 % of Cmp 1a	15 % of Cmp 1a and 21 % of Cmp 1a and 26 % of Cmp 1a and -5 % of Cmp 1a	7 % of Cmp 1a and 26 % of Cmp 1a and 10 % of Cmp 1a and -17 % of Cmp 1a	-3.33 % of Cmp 1a and 29 % of Cmp 1a and 0 % of Cmp 1a and -12 % of Cmp 1a	3 % of Cmp 1a and 6.33 % of Cmp 1a and 6 % of Cmp 1a and -13 % of Cmp 1a	1 % of Cmp 1a and 1.67 % of Cmp 1a and 3 % of Cmp 1a and -15 % of Cmp 1a	1.33 % of Cmp 1a (2×) and -3 % of Cmp 1a and -12 % of Cmp 1a	4.33 % of Cmp 1a and 6.33 % of Cmp 1a and 12 % of Cmp 1a and -16 % of Cmp 1a	-5 % of Carbachol and 8 % of Carbachol and 10 % of Carbachol
3.98 µM	90 ± 6%	3- to 25 fold	–	–	Cc1ncc(-c2nc(CC(=O)NC(C)c3ccccc3)no2)s1 (centres unmarked) [Compound 1.34, CC(C1=CC=CC=C1)NC(CC2=NOC(C3=CN=C(S3)C)=N2)=O]	33 % of Cmp 1a and 16 % of Cmp 1a and 43 % of Cmp 1a	81 % of Cmp 1a and 51 % of Cmp 1a	108 % of Cmp 1a and 98 % of Cmp 1a and 84 % of Cmp 1a and 88 % of Cmp 1a	66 % of Cmp 1a and 94 % of Cmp 1a and 68 % of Cmp 1a and 51 % of Cmp 1a	43 % of Cmp 1a and 86 % of Cmp 1a and 38 % of Cmp 1a and 21 % of Cmp 1a	8.56 % of Cmp 1a and 40 % of Cmp 1a and 9.49 % of Cmp 1a and -0.9 % of Cmp 1a	-2.32 % of Cmp 1a and 12 % of Cmp 1a and 4.69 % of Cmp 1a and 1.79 % of Cmp 1a	3 % of Cmp 1a (2×) and -4 % of Cmp 1a and 10 % of Cmp 1a	8 % of Cmp 1a and -0.386 % of Cmp 1a and 18 % of Cmp 1a and 3.4 % of Cmp 1a	15 % of Cmp 1a and -0.802 % of Cmp 1a and 16 % of Cmp 1a and 14 % of Cmp 1a	6.66 % of Cmp 1a and 2 % of Cmp 1a and 14 % of Cmp 1a and 12 % of Cmp 1a	1.77 % of Cmp 1a and 8 % of Cmp 1a and 11 % of Cmp 1a and 6 % of Cmp 1a	0.0525 % of Carbachol and -0.37 % of Carbachol and -1 % of Carbachol
5.01 µM	101 ± 5%	–	–	–	COc1ccc(-c2nc(CC(=O)NC(C)c3ccccc3)no2)nc1 (centres unmarked) [Compound 1.35, COC1=CN=C(C2=NC(CC(NC(C3=CC=CC=C3)C)=O)=NO2)C=C1]	28 % of Cmp 1a and 18 % of Cmp 1a and 35 % of Cmp 1a	54 % of Cmp 1a and 78 % of Cmp 1a and 29 % of Cmp 1a	94 % of Cmp 1a and 90 % of Cmp 1a and 98 % of Cmp 1a and 75 % of Cmp 1a	78 % of Cmp 1a and 80 % of Cmp 1a (2×) and 38 % of Cmp 1a	47 % of Cmp 1a and 55 % of Cmp 1a and 66 % of Cmp 1a and 27 % of Cmp 1a	20 % of Cmp 1a and 21 % of Cmp 1a and 51 % of Cmp 1a and 17 % of Cmp 1a	-3 % of Cmp 1a and 8 % of Cmp 1a and 26 % of Cmp 1a and 20 % of Cmp 1a	1.67 % of Cmp 1a and -1.67 % of Cmp 1a and 26 % of Cmp 1a and 31 % of Cmp 1a	2.67 % of Cmp 1a and 5.33 % of Cmp 1a and 16 % of Cmp 1a and 34 % of Cmp 1a	-2 % of Cmp 1a and 11 % of Cmp 1a and 29 % of Cmp 1a and 25 % of Cmp 1a	-6 % of Cmp 1a and 3 % of Cmp 1a and 17 % of Cmp 1a and -0.333 % of Cmp 1a	2 % of Cmp 1a and 4.67 % of Cmp 1a and 12 % of Cmp 1a and -2 % of Cmp 1a	7 % of Carbachol and 14 % of Carbachol and 10 % of Carbachol
–	82 ± 7%	–	7 fold	1.3 µM	CC(NC(=O)Cn1cc(-c2cccs2)nn1)c1ccccc1 (centres unmarked) [Compound 1.38, CC(NC(=O)CN1C=C(N=N1)C2=CC=CS2)C=3C=CC=CC3]	22 % of Cmp 1a and 19 % of Cmp 1a	54 % of Cmp 1a and 77 % of Cmp 1a and 68 % of Cmp 1a	92 % of Cmp 1a (2×) and 78 % of Cmp 1a and 67 % of Cmp 1a	90 % of Cmp 1a and 69 % of Cmp 1a and 85 % of Cmp 1a and 60 % of Cmp 1a	88 % of Cmp 1a and 51 % of Cmp 1a and 91 % of Cmp 1a and 56 % of Cmp 1a	56 % of Cmp 1a and 17 % of Cmp 1a and 49 % of Cmp 1a and 18 % of Cmp 1a	22 % of Cmp 1a and -6 % of Cmp 1a and 11 % of Cmp 1a and 3.64 % of Cmp 1a	7.61 % of Cmp 1a and -2.54 % of Cmp 1a and 1.82 % of Cmp 1a and 1.21 % of Cmp 1a	0.854 % of Cmp 1a and 4 % of Cmp 1a and -4.35 % of Cmp 1a and 9 % of Cmp 1a	-1.25 % of Cmp 1a and 0.0327 % of Cmp 1a and -3 % of Cmp 1a and 1.5 % of Cmp 1a	1 % of Cmp 1a and 0.912 % of Cmp 1a and 6 % of Cmp 1a and 0.231 % of Cmp 1a	5.27 % of Cmp 1a and -0.036 % of Cmp 1a and 7.38 % of Cmp 1a and 4.27 % of Cmp 1a	0.152 % of Carbachol and 1.48 % of Carbachol and 2 % of Carbachol
0.316 µM	123 ± 14%	–	–	–	COc1csc(-c2nc(CC(=O)NC(C)c3ccccc3)no2)c1 (centres unmarked) [Compound 1.39, COC1=CSC(=C1)C2=NC(CC(=O)NC(C)C=3C=CC=CC3)=NO2]	-8 % of Cmp 1a and 12 % of Cmp 1a and -11 % of Cmp 1a	80 % of Cmp 1a and 95 % of Cmp 1a and 86 % of Cmp 1a	120 % of Cmp 1a and 97 % of Cmp 1a and 133 % of Cmp 1a	130 % of Cmp 1a and 91 % of Cmp 1a and 148 % of Cmp 1a	122 % of Cmp 1a and 94 % of Cmp 1a and 152 % of Cmp 1a	98 % of Cmp 1a and 72 % of Cmp 1a and 114 % of Cmp 1a	73 % of Cmp 1a and 44 % of Cmp 1a and 79 % of Cmp 1a	38 % of Cmp 1a and 21 % of Cmp 1a and 34 % of Cmp 1a	20 % of Cmp 1a and 15 % of Cmp 1a and 2 % of Cmp 1a	16 % of Cmp 1a and 17 % of Cmp 1a and -3.33 % of Cmp 1a	7 % of Cmp 1a and 12 % of Cmp 1a and -8 % of Cmp 1a	15 % of Cmp 1a and 20 % of Cmp 1a and 0.667 % of Cmp 1a	-14 % of Carbachol and -1 % of Carbachol and -5.33 % of Carbachol
